{
  "source": "patent EP0346791B1",
  "about": "“1,2-diarylethylamines for treatment of neurotoxic injury” (priority 1988, dated 1989)",
  "key": {"Male Sprague-Dawley rats": {"test_system": "Male Sprague-Dawley rats", "experiment": "Behavioral assay (stereotyped behavior, PCP rating scale)", "assay_type": "in vivo", "settings": "95% confidence intervals in parenthesis; for ED50: Rattus norvegicus", "experimental": "Nine compounds were tested in comparison with PCP and TCP by an in vivo assay which determined stereotypic behavior in rats treated with the compounds. Male Sprague-Dawley rats weighing 200 to 250 g were used in the behavioral experiments. Each rat was used only once. Rats were anesthetized lightly with ether before a 20-gauge needle was used to make a hole in the rat's skull for i.c.v. injection of drugs at a later date. These rats were allowed to recover for at least 1 day before being used in the behavioral assays. On the day of the experiment, rats were placed individually into plastic rat cages and allowed at least 1 hr to acclimate before testing. Drugs were administered to rats in a random, single-blind fashion.\nDose-response curves for each treatment were determined at the time of maximal behavioral effect. Peak effects were found 5 min after i.c.v. administration of PCP (25-20000 nmol/rat). […] A rating of 5 in the PCP-rating scale was considered as complete stereotyped behavior, that is, a 100% response. At least 21 rats (at least seven rats/dose) were used to determine each dose-response curve and ED₅₀ values. ED₅₀ values and dose-response curves were evaluated using a computerized Finney assay [Statistical Methods In Biological Assays, 2nd Edn., Hatner Pub. Co., New York (1964)].\nThe ability of the tested compounds to induce stereotyped behavior was assessed at 2.5, 5 and 10 minutes and thereafter every 5 min up to 1 hr after i.c.v., i.p., or s.c. administration."}, "Male Mongolian gerbils": {"test_system": "Male Mongolian gerbils", "experiment": "Forebrain ischemia assay (carotid occlusion, CA1 cell loss)", "assay_type": "in vivo", "settings": "30 mg/kg i.p. 30 minutes prior to carotid occlusion; 7 days; vs saline injected gerbils; Mann-Whitney U test p<0.01", "experimental": "Male Mongolian gerbils, 50-70 gm, were used as subjects. Compound No. 1 (30 mg/kg) was injected i.p. 30 minutes prior to carotid occlusion into 6 gerbils. In preparation for surgical procedures, the animals were lightly anesthetized with methoxyflurane and placed upside down on a heated pad with their snout within a nosecone. Nitrous oxide (70%): oxygen (30%) plus 0.5% halothane was circulated through the nosecone to provide continuous anesthesia throughout the surgical procedure. A midline incision was made in the neck and the carotid arteries were exposed. A length of suture thread was placed under each carotid. The thread was then tightened around each carotid and pressure applied to the thread to insure flow was occluded. Flow was occluded for 4-5 minutes and then the thread was removed. The carotids were visually inspected to confirm that reflow had occurred. The wound was then closed with autoclips and the gerbils allowed to recover. Following surgery, the gerbils were kept alive for 7 days. They were anesthetized with 100 mg/kg sodium pentobarbital and perfused transcardially with saline (with heparin) followed by buffered formalin. The brain was removed, trimmed and prepared for histological processing. Sections (10 microns) were stained with thionin. […]"}, "hippocampal neurons [1]": {"test_system": "hippocampal neurons", "experiment": "Chronic hypoxic insult assay (MTT neuronal survival)", "assay_type": "cell-based, Sprague-Dawley rats", "settings": "for Optical Density: 6 hours anaerobic chamber, then 2 hours normal O2, MTT 570 nm, ± SEM, untreated control 0.058, hypoxia alone 0.020; for Maximum protection of neurons from hypoxic insult was obtained with: concentration giving maximum protection", "experimental": "Compound Nos. 4 and 5 were tested for their ability to protect hippocampal neurons from hypoxia-induced cell death. Cultures of hippocampal neurons were prepared from embryonic day 17 Sprague-Dawley rats. The hippocampi were dissociated into a single cell suspension by incubation with 0.25% trypsin, […] DNase followed by gentle trituration through a Pasteur pipet. The cells were plated in a polylysine-coated 96-well plate and maintained in a chemically defined medium until use. The cells were grown for 2 to 3 weeks in 5% CO₂-in-air humidified environment at 36°C to establish a thick network of neuronal processes with numerous spontaneously active synapses. Exposure to hypoxic/anoxic environment was accomplished by placing the cultures in an anaerobic chamber, and flushing it with a mixture of 95% N₂+ 5% CO₂ gas to rapidly drop the O₂ tension to near zero. The O₂ tension was maintained at near zero using a disposable H₂ + CO₂ generator envelope with palladium catalyst. Compound No. 4 and Compound No. 5 were added to the culture medium prior to incubation in the anaerobic chamber and maintained there for 6 hours. Following 2 hours of exposure to normal O₂ tension, the cultures were processed for morphological and quantitive biochemical neuronal cell viability assays.\nThe neuronal survival assay utilized the compound MTT [(3-(4,5-dimethylthiazol-2-yl)-2,5-diphenyl tetrazolium bromide)], a pale yellow substrate that is cleaved by the mitochondrial enzyme succinate-dehydrogenase to yield a dark blue formazan product. This process requires active mitochondria, present only in live cells. Cultures of hippocampal neurons grown in 96-well plates were incubated with 1 mg/ml MTT at 36°C in a 10% CO₂-in-air incubator for 30-60 min. At the end of the incubation, a dark blue precipitate outlined only viable cells. The precipitate was then solubilized using 0.08 N HCl/isopropanol mixture and the absorbance measured with an ELISA plate reader (Dynatech MR600) using a test wavelength of 570 nm and a reference wavelength of 630 nm. The resulting optical density is directly proportional to the number of viable cells."}, "PCP receptors": {"biological_target": "PCP receptors", "assay_type": "binding", "settings": "1 nM 3H-TCP, whole rat brain membranes, 1 hour incubation; value ± SEM; read-out: Ki apparent"}, "hippocampal neurons [2]": {"test_system": "hippocampal neurons", "experiment": "Acute azide toxicity assay (MTT neuronal survival)", "assay_type": "cell-based, Sprague-Dawley rats", "settings": "10 µM sodium azide for 1 hour"}, "[3]": {"settings": "ip, read-out: Stereotyped Behavior ED₅₀ i.p."}, "[4]": {"settings": "sc, read-out: Stereotyped Behavior ED₅₀ s.c."}},
  "note": "Like-named read-outs stand apart in the source and are kept apart here.",
  "data": [
    {"smiles": "c1ccc(CC(c2ccccc2)N2CCCCC2)cc1", "note": "(racemic) [Compound No. 1]", "values": [
      {"measurement": "ED50", "setting": "Male Sprague-Dawley rats; [3]", "value": 2, "unit": "mg/kg"},
      {"measurement": "ED50", "setting": "Male Sprague-Dawley rats; [4]", "value": 2.9, "unit": "mg/kg"},
      {"measurement": "cell loss in CA1", "setting": "Male Mongolian gerbils", "value": "significantly reduced"}
    ]},
    {"smiles": "c1ccc(CC(c2cccs2)N2CCCCC2)cc1", "note": "(racemic) [Compound No. 5]", "values": [
      {"measurement": "Optical Density", "setting": "hippocampal neurons [1]; Hypoxia + 10 µM compound", "value": "0.047 ± 0.01"},
      {"measurement": "Maximum protection of neurons from hypoxic insult was obtained with", "setting": "hippocampal neurons [1]", "value": 10, "unit": "µM"},
      {"measurement": "ED50", "setting": "Male Sprague-Dawley rats; [4]", "value": 3.5, "unit": "mg/kg"}
    ]},
    {"smiles": "C1=CCN(C(Cc2ccccc2)c2ccccc2)CC1", "note": "(racemic) [Compound No. 6]", "values": [
      {"measurement": "Stereotyped Behavior ED₅₀ i.c.v.", "setting": "Male Sprague-Dawley rats", "value": "100(81-120) nmoles/rat"}
    ]},
    {"smiles": "CC(C)C(c1ccccc1)C(c1ccccc1)N1CCCCC1", "note": "(racemic) [Compound No. 12]", "values": [
      {"measurement": "ED50", "setting": "Male Sprague-Dawley rats; [4]", "value": "> 50", "unit": "mg/kg"}
    ]},
    {"smiles": "OC(c1ccccc1)C(c1ccccc1)N1CCCCC1", "note": "(racemic) [Compound No. 13]", "values": [
      {"measurement": "ED50", "setting": "Male Sprague-Dawley rats; [4]", "value": 11, "unit": "mg/kg"}
    ]},
    {"smiles": "C1=CCN(C(Cc2ccccc2)c2cccs2)CC1", "note": "(racemic) [Compound No. 15]", "values": [
      {"measurement": "ED50", "setting": "Male Sprague-Dawley rats; [4]", "value": 1.7, "unit": "mg/kg"}
    ]},
    {"smiles": "c1ccc(CC(c2ccccc2)N2CCCC2)cc1", "note": "(racemic) [Compound No. 20]", "values": [
      {"measurement": "Ki", "setting": "PCP receptors", "value": "16000 ± 2600", "unit": "nM"},
      {"measurement": "ED50", "setting": "Male Sprague-Dawley rats; [4]", "value": 7.8, "unit": "mg/kg"}
    ]},
    {"smiles": "Cc1ccc(C(Cc2ccccc2)N2CCCCC2)cc1", "note": "(racemic) [Compound No. 21]", "values": [
      {"measurement": "Ki", "setting": "PCP receptors", "value": "1800 ± 300", "unit": "nM"}
    ]},
    {"smiles": "COc1ccc(C(Cc2ccccc2)N2CCCCC2)cc1", "note": "(racemic) [Compound No. 22]", "values": [
      {"measurement": "Ki", "setting": "PCP receptors", "value": "8100 ± 500", "unit": "nM"}
    ]},
    {"smiles": "c1ccc(C(N2CCCCC2)C2(c3ccccc3)CC2)cc1", "note": "(racemic) [Compound No. 23]", "values": [
      {"measurement": "Ki", "setting": "PCP receptors", "value": "> 30000", "unit": "nM"}
    ]},
    {"smiles": "CC1CC(C)CN(C(Cc2ccccc2)c2ccccc2)C1", "note": "(racemic) [Compound No. 24]", "values": [
      {"measurement": "Ki", "setting": "PCP receptors", "value": "850 ± 40", "unit": "nM"}
    ]},
    {"smiles": "CC(C)(c1ccccc1)C(c1cccs1)N1CCCCC1", "note": "(racemic) [Compound No. 25]", "values": [
      {"measurement": "Ki", "setting": "PCP receptors", "value": "> 30000", "unit": "nM"}
    ]},
    {"smiles": "COc1cccc(C(Cc2ccccc2)N2CCCCC2)c1", "note": "(racemic) [Compound No. 26]", "values": [
      {"measurement": "Ki", "setting": "PCP receptors", "value": "100 ± 20", "unit": "nM"}
    ]},
    {"smiles": "Fc1ccc(C(Cc2ccccc2)N2CCCCC2)cc1", "note": "(racemic) [Compound No. 27]", "values": [
      {"measurement": "Ki", "setting": "PCP receptors", "value": "220 ± 10", "unit": "nM"}
    ]},
    {"smiles": "CC(C)(c1ccccc1)C(c1ccccc1)N1CCCCC1", "note": "(racemic) [Compound No. 28]", "values": [
      {"measurement": "Ki", "setting": "PCP receptors", "value": "12000 ± 1000", "unit": "nM"}
    ]},
    {"smiles": "Cc1cccc(C(Cc2ccccc2)N2CCCCC2)c1", "note": "(racemic) [Compound No. 29]", "values": [
      {"measurement": "Ki", "setting": "PCP receptors", "value": "110 ± 30", "unit": "nM"}
    ]},
    {"smiles": "c1ccc(CC(c2ccco2)N2CCCCC2)cc1", "note": "(racemic) [Compound No. 30]", "values": [
      {"measurement": "Ki", "setting": "PCP receptors", "value": "400 ± 10", "unit": "nM"}
    ]},
    {"smiles": "Clc1ccccc1C(Cc1ccccc1)N1CCCCC1", "note": "(racemic) [Compound No. 31]", "values": [
      {"measurement": "Ki", "setting": "PCP receptors", "value": "0.19 ± 0.11", "unit": "nM"}
    ]},
    {"smiles": "COc1ccccc1C(Cc1ccccc1)N1CCCCC1", "note": "(racemic) [Compound No. 32]", "values": [
      {"measurement": "Ki", "setting": "PCP receptors", "value": "170 ± 10", "unit": "nM"}
    ]},
    {"smiles": "c1ccc(CC(c2cccc3ccccc23)N2CCCCC2)cc1", "note": "(racemic) [Compound No. 33]", "values": [
      {"measurement": "Ki", "setting": "PCP receptors", "value": "6000 ± 1700", "unit": "nM"}
    ]},
    {"smiles": "c1ccc(CC(c2ccccc2)N2CCCCC2)cc1", "note": "(single isomer, unassigned) [Compound No. 3]", "values": [
      {"measurement": "Stereotyped Behavior ED₅₀ s.c.", "setting": "Male Sprague-Dawley rats", "value": ">40", "unit": "mg/kg"}
    ]},
    {"smiles": "c1ccc(CC(c2ccccc2)N2CCCCC2)cc1", "note": "(single isomer, unassigned) [Compound No. 4]", "values": [
      {"measurement": "Optical Density", "setting": "hippocampal neurons [1]; Hypoxia + 1 µM compound", "value": "0.046 ± 0.01"},
      {"measurement": "Maximum protection of neurons from hypoxic insult was obtained with", "setting": "hippocampal neurons [1]", "value": 1, "unit": "µM"},
      {"measurement": "ED50", "setting": "Male Sprague-Dawley rats; [3]", "value": 2.1, "unit": "mg/kg"},
      {"measurement": "Stereotyped Behavior ED₅₀ i.c.v.", "setting": "Male Sprague-Dawley rats", "value": "120(100-140) nmoles/rat"},
      {"measurement": "Stereotyped Behavior ED₅₀ s.c.", "setting": "Male Sprague-Dawley rats", "value": "0.78(0.60-1.0) mg/kg"},
      {"measurement": "protection of neurons from sodium azide toxicity", "setting": "hippocampal neurons [2]; 100 µM compound", "value": "significant protection"},
      {"measurement": "Optical Density", "setting": "hippocampal neurons [2]; Sodium azide + 100 µM compound, MTT, ± SEM, control 0.123, sodium azide alone 0.075", "value": "0.133 ± 0.01"}
    ]},
    {"smiles": "c1ccc(C2(N3CCCCC3)CCCCC2)cc1", "note": "[PCP, Phencyclidine, reference compound]", "values": [
      {"measurement": "Stereotyped Behavior ED₅₀ i.c.v.", "setting": "Male Sprague-Dawley rats", "value": "150(120-170) nmoles/rat"}
    ]}
  ]
}
